Reference: ChEMBL document CHEMBL3351775, “Design, synthesis and anti-HIV evaluation of novel diarylnicotinamide derivatives (DANAs) targeting the entrance channel of the NNRTI binding pocket through structure-guided molecular hybridization” (Eur J Med Chem, 2014)
Structures can show the parent of a compound that is named as a salt.

Legend:
in vitro = details: human, MT4 cells, mock-infected (CC50) and HIV1 3B infected (EC50)
Description: Selectivity index, ratio of CC50 for mock-infected human MT4 cells to EC50 for HIV1 3B infected in human MT4 cells

[1] = tested on: Human immunodeficiency virus 1; assay: Antiviral activity against HIV1 3B infected in human MT4 cells assessed as inhibition of virus-induced […] after 5 days by MTT assay; assay type: functional, organism-based; details: Human immunodeficiency virus 1, 3B, MT4, 120 h
[2] = tested on: Human immunodeficiency virus 1; assay: Antiviral activity against HIV1 RES056 expressing reverse transcriptase K103N + Y181C mutant infected in human MT4 cells assessed as inhibition of virus-induced […] after 5 days by MTT assay; assay type: functional, organism-based; details: Human immunodeficiency virus 1, RES056, MT4, 120 h
[3] = Cytotoxicity against mock-infected human MT4 cells after 5 days by MTT assay; assay type: cell-based
[4] = target: Human immunodeficiency virus type 1 reverse transcriptase (Human immunodeficiency virus 1, UniProt Q72547); assay: Inhibition of HIV1 reverse transcriptase assessed as reduction in biotin-dUTP incorporation using poly(rA)-oligo(dT) as template/primer and digoxigenin-/biotin-labeled dUTP nucleotides incubated for 1 hr
[5] = tested on: Human immunodeficiency virus 2; assay: Antiviral activity against HIV2 ROD infected in human MT4 cells assessed as inhibition of virus-induced […] after 5 days by MTT assay; assay type: functional, organism-based; details: Human immunodeficiency virus 2, ISOLATE ROD, MT4, 120 h

CC(C)Nc1cccnc1N1CCN(C(=O)c2cc3cc(NS(C)(=O)=O)ccc3[nH]2)CC1 [DELAVIRDINE MESYLATE]
selectivity ratio (in vitro): > 67 | EC50 [1]: 0.66 µM | EC50 [2]: > 43.8 µM | CC50 at 120 h [3]: > 43.8 µM

Cc1ccnc2c1NC(=O)c1cccnc1N2C1CC1 [NEVIRAPINE]
EC50 [1]: 0.31 µM | EC50 [2]: > 7.58 µM | CC50 at 120 h [3]: > 15 µM

CCCNC(=O)c1cnc(Nc2ccc(C#N)cc2)cc1Oc1c(C)cc(C#N)cc1C
selectivity ratio (in vitro): 321 | EC50 [1]: 0.54 µM | IC50 [4]: 4.14 µM | EC50 [2]: > 170 µM | EC50 [5]: > 170 µM | CC50 at 120 h [3]: 170 µM

Cc1cc(C#N)cc(C)c1Oc1cc(Nc2ccc(C#N)cc2)ncc1C(=O)NCCN(C)C
selectivity ratio (in vitro): ≤ 3 | EC50 [1]: > 8.8 µM | IC50 [4]: 25.8 µM | EC50 [2]: > 23.2 µM | EC50 [5]: > 7.5 µM | CC50 at 120 h [3]: 23.2 µM

C#CCNC(=O)c1cnc(Nc2ccc(C#N)cc2)cc1Oc1c(C)cc(C#N)cc1C
selectivity ratio (in vitro): 703 | EC50 [1]: 0.24 µM | IC50 [4]: 1.29 µM | EC50 [2]: > 167 µM | EC50 [5]: > 167 µM | CC50 at 120 h [3]: 167 µM

C#CCNC(=O)c1cnc(Nc2ccc(C#N)cc2)cc1Oc1c(C)cc(C)cc1C
selectivity ratio (in vitro): 2470 | EC50 [1]: 0.029 µM | IC50 [4]: 0.07 µM | EC50 [2]: 6.1 µM | EC50 [5]: > 73 µM | CC50 at 120 h [3]: 73 µM

Cc1cc(C)c(Oc2cc(Nc3ccc(C#N)cc3)ncc2C(=O)NCCC#N)c(C)c1
selectivity ratio (in vitro): 310 | EC50 [1]: 0.033 µM | IC50 [4]: 0.19 µM | EC50 [2]: > 9.89 µM | EC50 [5]: > 9.9 µM | CC50 at 120 h [3]: 9.89 µM

Nc1ccn([C@@H]2CS[C@H](CO)O2)c(=O)n1 [LAMIVUDINE]
selectivity ratio (in vitro): > 39 | EC50 [1]: 2.22 µM | EC50 [5]: 8.81 µM | CC50 at 120 h [3]: > 87.2 µM

Cc1cc(C#N)cc(C)c1Oc1cc(Nc2ccc(C#N)cc2)ncc1C(=O)NC1CC1
selectivity ratio (in vitro): 784 | EC50 [1]: 0.31 µM | IC50 [4]: 3.37 µM | EC50 [2]: > 231 µM | EC50 [5]: > 231 µM | CC50 at 120 h [3]: 231 µM

COC(CNC(=O)c1cnc(Nc2ccc(C#N)cc2)cc1Oc1c(C)cc(C)cc1C)OC
selectivity ratio (in vitro): 83 | EC50 [1]: 0.28 µM | IC50 [4]: 1.89 µM | EC50 [2]: > 23.2 µM | EC50 [5]: > 23.2 µM | CC50 at 120 h [3]: 23.2 µM

O=c1[nH]cnc2c1ncn2[C@H]1CC[C@@H](CO)O1 [DIDANOSINE]
selectivity ratio (in vitro): > 9 | EC50 [1]: 23.2 µM | EC50 [5]: 44.9 µM | CC50 at 120 h [3]: > 212 µM

COCCNC(=O)c1cnc(Nc2ccc(C#N)cc2)cc1Oc1c(C)cc(C)cc1C
selectivity ratio (in vitro): 359 | EC50 [1]: 0.067 µM | IC50 [4]: 0.52 µM | EC50 [2]: 7.8 µM | EC50 [5]: > 24 µM | CC50 at 120 h [3]: 24 µM

Cc1cc(C#N)cc(C)c1Oc1cc(Nc2ccc(C#N)cc2)ncc1C(=O)NCCC#N
selectivity ratio (in vitro): 97 | EC50 [1]: 0.69 µM | IC50 [4]: 3.94 µM | EC50 [2]: > 65.8 µM | EC50 [5]: > 65.8 µM | CC50 at 120 h [3]: 65.8 µM

Cc1cc(C)c(Oc2cc(Nc3ccc(C#N)cc3)ncc2C(=O)NCCN(C)C)c(C)c1
selectivity ratio (in vitro): 7 | EC50 [1]: 0.63 µM | IC50 [4]: 3.45 µM | EC50 [2]: > 16.7 µM | EC50 [5]: > 16.7 µM | CC50 at 120 h [3]: 4.67 µM

Cc1cc(C#N)cc(C)c1Oc1cc(Nc2ccc(C#N)cc2)ncc1C(=O)NCC1CC1
selectivity ratio (in vitro): ≥ 175 | EC50 [1]: 0.85 µM | IC50 [4]: 4.25 µM | EC50 [2]: > 146 µM | EC50 [5]: > 146 µM | CC50 at 120 h [3]: > 146 µM

Cc1cc(C)c(Oc2cc(Nc3ccc(C#N)cc3)ncc2C(=O)NCC2CCCO2)c(C)c1 (stereo unspecified)
selectivity ratio (in vitro): > 1490 | EC50 [1]: 0.18 µM | IC50 [4]: 1.2 µM | EC50 [2]: > 274 µM | EC50 [5]: > 274 µM | CC50 at 120 h [3]: > 274 µM

Cc1cc(C#N)cc(C)c1Oc1cc(Nc2ccc(C#N)cc2)ncc1C(=O)NCC1CCCO1 (stereo unspecified)
selectivity ratio (in vitro): 46 | EC50 [1]: 3.1 µM | IC50 [4]: 10.9 µM | EC50 [2]: > 142 µM | EC50 [5]: > 142 µM | CC50 at 120 h [3]: 143 µM

Cc1cc(C#N)cc(C)c1Oc1cc(Nc2ccc(C#N)cc2)ncc1C(N)=O
selectivity ratio (in vitro): > 6200 | EC50 [1]: 0.05 µM | IC50 [4]: 0.08 µM | EC50 [2]: > 326 µM | EC50 [5]: > 326 µM | CC50 at 120 h [3]: > 326 µM

COC(CNC(=O)c1cnc(Nc2ccc(C#N)cc2)cc1Oc1c(C)cc(C#N)cc1C)OC
selectivity ratio (in vitro): 20 | EC50 [1]: 4.54 µM | IC50 [4]: 11.4 µM | EC50 [2]: > 90.6 µM | EC50 [5]: > 90.6 µM | CC50 at 120 h [3]: 90.6 µM

O=C1Nc2ccc(Cl)cc2[C@@](C#CC2CC2)(C(F)(F)F)O1 [EFAVIRENZ]
EC50 [1]: 0.0063 µM | CC50 at 120 h [3]: > 6.34 µM

COCCNC(=O)c1cnc(Nc2ccc(C#N)cc2)cc1Oc1c(C)cc(C#N)cc1C
selectivity ratio (in vitro): 35 | EC50 [1]: 1.74 µM | IC50 [4]: 11.3 µM | EC50 [2]: > 61 µM | EC50 [5]: > 61 µM | CC50 at 120 h [3]: 61 µM

Cc1cc(C)c(Oc2cc(Nc3ccc(C#N)cc3)ncc2C(=O)NC2CC2)c(C)c1
selectivity ratio (in vitro): 103 | EC50 [1]: 0.24 µM | IC50 [4]: 0.23 µM | EC50 [2]: > 25.8 µM | EC50 [5]: > 25.7 µM | CC50 at 120 h [3]: 25.8 µM

Cc1cc(C)c(Oc2cc(Nc3ccc(C#N)cc3)ncc2C(N)=O)c(C)c1
selectivity ratio (in vitro): > 12500 | EC50 [1]: 0.027 µM | IC50 [4]: 0.02 µM | EC50 [2]: > 336 µM | EC50 [5]: > 336 µM | CC50 at 120 h [3]: > 336 µM

C=CCNC(=O)c1cnc(Nc2ccc(C#N)cc2)cc1Oc1c(C)cc(C)cc1C
selectivity ratio (in vitro): 364 | EC50 [1]: 0.058 µM | IC50 [4]: 0.17 µM | EC50 [2]: 10.1 µM | EC50 [5]: > 21.5 µM | CC50 at 120 h [3]: 21.3 µM

CCCNC(=O)c1cnc(Nc2ccc(C#N)cc2)cc1Oc1c(C)cc(C)cc1C
selectivity ratio (in vitro): 335 | EC50 [1]: 0.055 µM | IC50 [4]: 0.32 µM | EC50 [2]: > 11.2 µM | EC50 [5]: > 11.1 µM | CC50 at 120 h [3]: 18.9 µM

C=CCNC(=O)c1cnc(Nc2ccc(C#N)cc2)cc1Oc1c(C)cc(C#N)cc1C
selectivity ratio (in vitro): 625 | EC50 [1]: 0.24 µM | IC50 [4]: 2.85 µM | EC50 [2]: > 207 µM | EC50 [5]: > 207 µM | CC50 at 120 h [3]: 207 µM

Cc1cn([C@H]2C[C@H](N=[N+]=[N-])[C@@H](CO)O2)c(=O)[nH]c1=O [ZIDOVUDINE]
EC50 [2]: 0.01 µM | EC50 [5]: 0.0067 µM | CC50 at 120 h [3]: > 93.5 µM

Cc1cc(C)c(Oc2cc(Nc3ccc(C#N)cc3)ncc2C(=O)NCC2CC2)c(C)c1
selectivity ratio (in vitro): 264 | EC50 [1]: 0.11 µM | IC50 [4]: 0.68 µM | EC50 [2]: > 30.6 µM | EC50 [5]: > 30.6 µM | CC50 at 120 h [3]: 30.6 µM

Cc1cc(C#N)cc(C)c1Oc1nc(Nc2ccc(C#N)cc2)nc(N)c1Br [ETRAVIRINE]
selectivity ratio (in vitro): > 1130 | EC50 [1]: 0.0041 µM | EC50 [2]: 0.025 µM | CC50 at 120 h [3]: > 4.59 µM
